Measurements taken from US8349793B2, “Method for treatment of inflammatory disease and disorder” (Heal0r, Ltd., priority 2010, dated 2013).
Where no end group is shown, it is not given here. The star is where a group is joined. Palmitoyl = CCCCCCCCCCCCCCCC(=O)*; Myristoyl = CCCCCCCCCCCCCC(=O)*

Assays:
[1] = test system: keratinocytes; test: Cytokine secretion in keratinocytes stimulated by LPS, TNFα or IL-17 (ELISA); format: cell-based, BALB/C mice; conditions: for cytokine secretion in keratinocytes: stimulated by LPS, TNFα, or IL-17
Experimental: To determine their effects, keratinocytes were derived from newborn BALB/C mice skin. The cells were incubated for 5 days in 24 wells plate. Cells were then incubated with PBS−/− as control or stimulated by LPS, TNFα, or IL-17. PKCα inhibitors were added as indicated. Medium containing secreted cytokines was collected after 48 hr and analyzed using ELISA. FIG. 40 is a tabular summary of cytokine secretion.
PKCδactivators were also shown to have an anti-inflammatory effect on keratinocytes and splenocytes. Keratinocytes were derived from newborn BALB/C mice skin. The cells were incubated for 5 days in 24 wells plate. Cells were then incubated with PBS−/− as control or stimulated by LPS or TNFα. The PKCδ inhibitor DAP-1 (SEQ ID NO: 16) was added. Medium containing secreted cytokines was collected after 48 hr and analyzed using ELISA. FIG. 35 is a tabular summary showing cytokine secretion in splenocytes stimulated with LPS. […] Cytokine secretion in keratinocytes stimulated by TNFα: following stimulation with 35 ng/ml TNFα. And treatment with 10 μg/ml of DAP-1, the cytokine levels of IL-1α, G-CSF, MIP-2 and KC were reduced by 95%, 70%, 20% and 30# respectively.
PKCε inhibitors were also shown to have an anti-inflammatory effect on keratinocytes. Keratinocytes were derived from newborn BALB/C mice skin. The cells were incubated for 5 days in 24 wells plate. Cells were then incubated with PBS−/− as control or stimulated by LPS or TNFα. The PKCεinhibitors EPIP-1 (SEQ ID NO: 20), EPIP-2 (SEQ ID NO: 21), or EPIP-4 (SEQ ID NO: 23) were added. Medium containing secreted cytokines was collected after 48 hr and analyzed using ELISA. FIGS. 36-39 show the results for secretion of specific cytokines while Table 8 summarizes cytokine secretion for the various PKCε inhibitors: […]

[2] = test system: splenocytes; test: Cytokine secretion in splenocytes stimulated with LPS or TNFα (ELISA); format: cell-based, B6 mice; conditions: TNFα 25 ng/ml, 48 hr
From the text: Inhibitory effect on activated splenocytes: Splenocytes were derived from B6 mice. […] Medium containing secreted cytokines was collected after 48 hr and analyzed using ELISA.

[3] = test system: keratinocytes; test: Keratinocyte differentiation markers (Filaggrin, Loricrin, Keratin 1); format: cell-based, C57BL/6J mice; conditions: concentration: EPIP1 and DAP1 1 μg/ml, 10 μg/ml, EPIP2 10 μg/ml
Experimental: Keratinocytes derived from C57BL/6J mice were incubated in medium containing Ca^2+ to induce keratinocytes differentiation. Cells were then incubated in the presence of […] (1 μg/ml). Cells were harvested, run on SDS PAGE gel and immunoblotted using anti-Filaggrin (Fil), anti Loricrin (Lor) and anti-Keratin 1 (K1) antibody.
(§1) FIGS. 7 and 8 presents a summary of expression data in keratinocytes utilizing various peptide PKCα inhibitors: MPDY-1 (SEQ ID NO: 21) as well as data for the peptide PKCα inhibitors AIP-1 (SEQ ID NO: 3), AIP-2 (SEQ ID NO: 20), AWOT-1 (SEQ ID NO: 5) and PPDY-1 (SEQ ID NO: 22). […] FIG. 8 presents a summary of expression data in keratinocytes for various peptide PKCα inhibitors.

[4] = test system: keratinocytes; test: Keratinocyte proliferation in vitro (PCNA); format: cell-based, Balb/c mice
Experimental: Primary murine keratinocytes from 2 days old Balb/c mice were grown for 5 days to reach full confluence in 0.05 mM Ca^2+ MEM medium. HO/02/10 treatment (10^−6M and 10^−5M) was applied 6 hours prior to induction of differentiation. Cells were harvested, run on SDS PAGE gel and immunoblotted using anti-PCNA antibodies. In addition, C57Black mice, 8-10 weeks of age were subjected to full thickness wounding in the upper back area to induce epidermis remodeling and differentiation. Following the wounding, mice were treated daily with HO/02/10 (ranged 40-4000 mg/kg/day) for 7 days. At the termination point, mice were euthanized and upper back skin samples were fixed in 4% paraformaldehyde solution, following paraffin embedding and slide preparation. Skin samples were then subjected to immunohistochemical staining utilizing PCNA antibody. (n=18).
as §1

[5] = test system: keratinocytes; test: Keratinocyte migration; format: cell-based; parameters: concentration or dose not given beside the values
[6] = LPS 1 [μg/ml], peptide [10 μg/ml], 48 hr
[7] = LPS 1 [μg/ml], peptide [1 g/ml], 48 hr
[8] = TNF [35 ng/ml], peptide [10 μg/ml], 48 hr
[9] = TNF [35 ng/ml], peptide [1 g/ml], 48 hr
[10] = keratinocytes, LPS (1 μg/ml) (EPIP4: printed 1 mg/ml), peptide concentration not given
[11] = keratinocytes, TNFa stim (35 ng/ml), 1 μg/ml of peptide (given for EPIP1, EPIP2, not for EPIP4), reduction printed with or without minus sign
[12] = keratinocytes, upon LPS and TNFa activation

Myristoyl-Phe-Ala-Arg-Lys-Gly-Ala-Leu (Myristoyl-FARKGAL) [AIP-2]
cytokine secretion from LPS and TNFα activated keratinocytes ([1]; FIGS. 19 to 23): decrease
cytokine secretion from IL-17A activated keratinocytes ([1]; FIGS. 24 to 27): decrease
cytokine secretion in keratinocytes ([1]; 48 hr): effective in decreasing cytokine secretion

Myristoyl-Thr-Arg-Lys-Arg-Gln-Arg-Ala-Met-Arg-Arg-Arg-Val-His-Gln-Ile-Asn-Gly (Myristoyl-TRKRQRAMRRRVHQING) [MPE-1]
G-CSF (% reduction in secretion) ([2]; peptide 1 μg/ml): 40%
IL-6 (% reduction in secretion) ([2]; peptide 1 μg/ml): 25%
IL-17 (% reduction in secretion) ([2]; peptide 1 μg/ml): 90%
G-CSF (% reduction in secretion) ([2]; peptide 10 μg/ml): 15%
IL-17 (% reduction in secretion) ([2]; peptide 10 μg/ml): 90%

PYIALNVD [EPIP-2]
G-CSF secretion (change) [1, 6]: −75%
IL-6 secretion (change) [1, 6]: −55%
IP-10 secretion (change) [1, 6]: −40%
KC secretion (change) [1, 6]: −90%
G-CSF secretion (change) [1, 7]: −50%
IL-6 secretion (change) [1, 7]: −40%
IP-10 secretion (change) [1, 7]: −50%
KC secretion (change) [1, 7]: −90%
G-CSF secretion (change) [1, 8]: −100%
IL-6 secretion (change) [1, 8]: −95%
IP-10 secretion (change) [1, 8]: (−40%)
G-CSF secretion (change) [1, 9]: −100%
IL-6 secretion (change) [1, 9]: −95%
IP-10 secretion (change) [1, 9]: (−65%)
G-CSF secretion (change) [1, 10]: −50%
IL-6 secretion (change) [1, 10]: −40%
IP-10 secretion (change) [1, 10]: −50%
KC secretion (change) [1, 10]: −90%
Reduces Chemokines IP 10 [1, 11]: Chemokines IP 10 (65%)
Reduces proinflammatory cytokines IL-6 [1, 11]: (95%), systemic cytokines G-SCF
IL-4 (% reduction in secretion) ([2]; peptide 1 μg/ml): 15%
IL-17 (% reduction in secretion) ([2]; peptide 1 μg/ml): 80%
IP-10 (% reduction in secretion) ([2]; peptide 1 μg/ml): 20%
G-CSF (% reduction in secretion) ([2]; peptide 10 μg/ml): 30%
IL-6 (% reduction in secretion) ([2]; peptide 10 μg/ml): 25%
IL-10 (% reduction in secretion) ([2]; peptide 10 μg/ml): 30%
IL-17 (% reduction in secretion) ([2]; peptide 10 μg/ml): 85%
IP-10 (% reduction in secretion) ([2]; peptide 10 μg/ml): 10%
Differentiation markers: granular differentiation [3]: Reduces granular
Differentiation markers: spainous differentiation [3]: Slightly induces
Proliferation markers ([4]; 1 μg/ml): Induces
Proliferation markers ([4]; 10 μg/ml): Reduce
Migration, Induces [5]: (200%)

Palmitoyl-Phe-Ala-Arg-Lys-Gly-Ala-Leu-Arg-Gln (Palmitoyl-FARKGALRQ) [PPDY-1]
cytokine secretion in keratinocytes ([1]; 48 hr): effective in decreasing cytokine secretion

Pro-Ala-Trp-His-Asp (PAWHD) [EPIP-3]
cytokine secretion, comparison with MPDY-1 ([1]; keratinocytes, IL-17 activation): IL-17: similar effect to MPDY-1
pro-inflammatory cytokines, chemokines (effect) [1, 12]: Reduces pro-inflammatory cytokines,
pro-inflammatory cytokines, chemokines, comparison with MPDY-1 [1, 12]: chemokines, better than MPDY-1 upon
Differentiation markers: granular differentiation [3]: Reduces granular
Proliferation markers (PCNA) ([4]; concentration not given): Induces
Migration, Induces [5]: (200%)

TLNPQWES [AIP-1]
cytokine secretion in keratinocytes ([1]; 48 hr): effective in decreasing cytokine secretion
